Read-outs that look alike come from different tables or passages of the source.
Legend:
[1] = test system: MRC-5 human lung fibroblast cell line; assay: MTT cytotoxicity assay in MRC-5; type: cell-based; conditions: Homo sapiens, MRC5, 72 h incubation
Method: (§1) The in vitro cytotoxic activity of the novel water-soluble amino acid derivatives of HQCl and their RhCp* and RuCym complexes was measured by the thiazolyl blue tetrazolium bromide (MTT) assay in two human colon adenocarcinoma cell lines (Colo-205 and Colo-320) and in one non-tumoral human lung fibroblast cell line (MRC-5). The results are given in terms of IC50 values (Table 1). Colo-205 is a drug-sensitive cell line with a normal ABCB1 transporter expression pattern, while Colo-320 is multidrug-resistant and overexpresses the ABCB1 system.
(§2) All cell culture reagents were obtained from Sigma-Aldrich and plasticware from Sarstedt (Nümbrecht, Germany). Human colonic Colo-205 doxorubicin-sensitive and Colo-320/MDR-LRP multidrug-resistant adenocarcinoma and MRC-5 human embryonal lung fibroblast cell lines were purchased from LGC Promochem, Teddington, UK. The colonic adenocarcinoma cells were cultured in Roswell Park Memorial Institute (RPMI) 1640 medium supplemented with 10% heat-inactivated fetal bovine serum, 2 mM L-glutamine, 1 mM sodium pyruvate and […]. The MRC-5 cell line was cultured in Eagle’s Minimal Essential Medium (EMEM, Sigma-Aldrich, St. Louis, MO, USA) supplemented with a non-essential amino acid (NEAA) mixture (Sigma-Aldrich, St. Louis, MO, USA) a selection of vitamins, 10% heat-inactivated foetal bovine serum (FBS), 2 mM L-glutamine (Sigma-Aldrich, St. Louis, MO, USA), 1 mM Na-pyruvate (Sigma-Aldrich, St. Louis, MO, USA), nystatin (Sigma-Aldrich, St. Louis, MO, USA) and a penicillin-streptomycin mixture (Sigma-Aldrich, St. Louis, MO, USA) in con-centrations of 100 U/L and 10 mg/L, respectively. The cells were incubated at 37 °C, in a 5% CO2, 95% air atmosphere. All cell lines were detached with Trypsin-Versene (EDTA) solution for 5 min at 37 °C.
(§3) The tested compounds were dissolved in 10% (v/v) DMSO/H2O using 4 mM concentration. Doxorubicin (Merck, Darmstadt, Germany) was used as a positive control. Then stock solutions were diluted in complete culture medium, and two-fold serial dilutions of compounds were prepared in 100 μL of the medium, horizontally. The semi-adherent colonic adenocarcinoma cells were treated with Trypsin-Versene (EDTA) solution. They were adjusted to a density of 1 × 10^4 cells in 100 μL of RPMI 1640 or EMEM medium and were added to each well, with the exception of the medium control wells. The final volume of the wells containing compounds and cells was 200 μL. The plates containing Colo-205, Colo-320 or MRC-5 cells were incubated at 37 °C for 72 h; at the end of the incubation period, 20 μL of MTT solution (from a stock solution of 5 mg/mL) were added to each well. After incubation at 37 °C for 4 h, 100 μL of SDS solution (10% in 0.01 M HCI) were added to each well, and the plates were further incubated at 37 °C overnight. […] The IC50 values were obtained from at least 3 independent experiments.

[2] = Proton dissociation constants of the ligands (pH-potentiometry, UV-vis, 1H NMR titrations); type: physicochemical; conditions: for pKa: aqueous solution, I = 0.2 M KNO3, T = 25.0 °C
Method: pH-potentiometric measurements were carried out at 25.0 ± 0.1 °C in water in the pH range between 2.0 and 11.5 and at a constant ionic strength of 0.2 M KNO3. The titrations were performed in a carbonate-free KOH solution (0.20 M). The exact concentrations of HNO3 and KOH solutions were determined by pH-potentiometric titrations. An Orion 710A pH-meter equipped with a Metrohm combined electrode (type 6.0234.100) and a Metrohm 665 Dosimat burette were used for the pH-potentiometric measurements. […] The average water ionization constant, pKw, was determined as 13.76 ± 0.01, which is in good agreement with the literature data. The initial volume of the samples was 5.0 mL. The ligand concentration was 1.75 or 2.0 mM. Samples were degassed by bubbling purified argon through them for about 10 min prior to the measurements, and the inert gas was also passed over the solutions during the titrations. The computer program Hyperquad2013 [46] was utilized to establish the stoichiometry of the species and to calculate the equilibrium constants, similarly to that performed in our previous works.
Agilent Cary 8454 diode array spectrophotometer was utilized to obtain UV-vis spectra in the wavelength range 190–1100 nm. The path length (ℓ) was 1 cm in most cases (the actual ℓ is always indicated in the legends of the figures). The concentrations of the ligands and complexes were between 88 and 240 µM. For HSA and ct-DNA containing samples, complex concentrations were 100 µM, and 0.5 and 2 equiv. biomolecule were added for kinetic studies, respectively. Individual samples contained 0–20 µM HSA and 0–1.75 mM (nucleotide) ct-DNA. Spectra were always background corrected. The computer program HypSpec was used to obtain stability constants.
Bruker Avance III HD Ascend 500 Plus instrument (Billerica, MA, USA) was used for NMR studies. ^1H NMR spectroscopic measurements were carried out with a WATERGATE water suppression pulse scheme in the presence of 10% (v/v) D2O in most cases. DSS internal standard was added to samples to obtain reference peaks. Complex concentrations were 0.5 mM or 1.0 mM, and 0.5 equiv. HSA was added. ^1H NMR titrations were carried out in the presence of 0.2 M KNO3. With the FHA model peptide, the measurements were performed at 0.5 or 1 mM metal complex concentrations, and 1:1, 1:2 or 2:1 peptide-to-metal complex ratios were applied. The computer program HypSpec was used to obtain stability constants.

[3] = Distribution coefficients, shake-flask n-octanol/buffered aqueous solution; type: physicochemical; conditions: pH 7.4, n-octanol/buffer, in 100 mM KCl, read-out: logD7.4
Method: It is worth noting that these amino acid hybrids have excellent water solubility due to their zwitterionic form, unlike most 8-hydroxyquinolines.
Distribution coefficients of the ligands as well as of the complexes were determined at pH = 7.4 using the traditional shake-flask method in n-octanol/buffered aqueous solution (20 mM phosphate) at different chloride ion concentrations (4, 24 and 100 mM) using UV-vis spectrophotometry for the analysis. The measurement and data evaluation were performed as described in our former work.

[4] = test system: Colo-205 human colon adenocarcinoma cell line (doxorubicin-sensitive); parameters: method as in PMID 32500882; conditions: cited from earlier work
[5] = test system: Colo-320 human colon adenocarcinoma cell line (multidrug-resistant); parameters: method as in PMID 32500882; conditions: cited from earlier work
[6] = parameters: method as in PMID 32500882; conditions: cited from earlier work
Colo-205 cells = assay: Annexin V-FITC / propidium iodide apoptosis induction assay, flow cytometry; type: cell-based, human; conditions: 3 h induction
From the text: 12H-Benzo[α]phenothiazine (M627) and cisplatin were used as positive controls. Annexin-V assay offers the possibility of detecting early phases of apoptosis. Apoptosis is a morphologically and biochemically distinct form of programmed cell death, which is the preferred mode of action for an anticancer compound. PI was used to distinguish between viable, early apoptotic and necrotic or late apoptotic cells. […] In order to better understand the different behavior of the studied compounds, an in-depth analysis of the various solution (physico-)chemical properties of the ligands and complexes were performed.
The assay was carried out using an Annexin V-FITC Apoptosis Detection Kit from Sigma-Aldrich according to the manufacturer’s instructions. The concentration of the Colo-205 cell suspension was adjusted to approximately 0.5 × 10^6 cells per mL in RPMI 1640 medium, and the cell suspension was distributed in 1 mL aliquots into a 24-well plate and then incubated overnight at 37 °C and 5% CO2. The next day, the medium was removed and replaced by 1 mL RPMI 1640 medium containing the compounds except for the control samples. […] After the incubation period, the samples were washed with PBS, and a fresh medium was added to the samples. The cells were incubated overnight at 37 °C and 5% CO2. The next day, 200 μL 0.25% Trypsin (Trypsin-Versen) was added to the samples until cells appeared detached, followed by the addition of 400 μL of medium supplemented with 10% bovine serum. The cells were collected in Eppendorf tubes and centrifuged at 2000× g for 2 min. The harvested cells were re-suspended in a fresh serum-free RPMI 1640 culture medium. After this step, the apoptosis assay was carried out according to the protocol of the kit. The fluorescence was analyzed immediately using a ParTec CyFlow flow cytometer (Partec GmbH, Münster, Germany).

[7] = parameters: method as in PMID 32500882; conditions: cited from earlier work; remark: listed apart in the source
Ac-Phe–His–Ala-NH2 (FHA) = test system: Ac-Phe–His–Ala-NH2 (FHA); parameters: method as in PMID 34374386; conditions: cited from earlier work
Ac-Ala–His–Ala-NH2 (AHA) = test system: Ac-Ala–His–Ala-NH2 (AHA); parameters: method as in PMID 34374386; conditions: cited from earlier work
[8] = target: T1, HSA site I (subdomain IIA) (Homo sapiens, UniProt P02768); parameters: method as in PMID 34374386; conditions: cited from earlier work
T1 construct: purchased Sigma-Aldrich A8763

[9] = target: T2, HSA site II (subdomain IIIA) (Homo sapiens, UniProt P02768); parameters: method as in PMID 34374386; conditions: cited from earlier work
T2 construct: purchased Sigma-Aldrich A8763

[10] = test system: Colo-205 human colon adenocarcinoma cell line (doxorubicin-sensitive); assay: MTT cytotoxicity assay in Colo-205; type: cell-based; conditions: Homo sapiens, COLO 205, 72 h incubation
Method: as §1, §2, §3

[11] = test system: Colo-320 human colon adenocarcinoma cell line (multidrug-resistant); assay: MTT cytotoxicity assay in Colo-320; type: cell-based; conditions: Homo sapiens, COLO 320, 72 h incubation
Method: as §1, §2, §3

T2 sequence (P02768 25-609): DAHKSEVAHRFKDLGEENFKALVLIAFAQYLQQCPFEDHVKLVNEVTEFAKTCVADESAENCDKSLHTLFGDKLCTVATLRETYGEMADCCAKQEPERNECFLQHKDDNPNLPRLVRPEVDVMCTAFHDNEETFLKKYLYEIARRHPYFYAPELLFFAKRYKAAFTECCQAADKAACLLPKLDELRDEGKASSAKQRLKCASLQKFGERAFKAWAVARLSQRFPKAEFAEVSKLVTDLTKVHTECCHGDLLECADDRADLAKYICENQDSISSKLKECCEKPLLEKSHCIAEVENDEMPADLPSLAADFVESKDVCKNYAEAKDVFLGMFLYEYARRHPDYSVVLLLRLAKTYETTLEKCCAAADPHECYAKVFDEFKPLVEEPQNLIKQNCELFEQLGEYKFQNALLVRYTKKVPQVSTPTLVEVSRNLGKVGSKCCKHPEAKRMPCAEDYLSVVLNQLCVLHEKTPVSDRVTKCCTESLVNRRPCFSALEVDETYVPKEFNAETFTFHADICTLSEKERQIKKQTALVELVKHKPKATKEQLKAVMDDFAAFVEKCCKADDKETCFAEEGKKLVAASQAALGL
T1 sequence (P02768 25-609): as above

O=C(O)[C@H]1CCCN1Cc1cc(Cl)c2cccnc2c1O [HQCl-D-Pro, (R)-5-chloro-7-((proline-1-yl)methyl)8-hydroxyquinoline]
IC50 [1]: 5.33 ± 0.44 µM | pKa ([2]; 1H NMR, read-out: pKa (NhPro/ProH+)): > 11 | pKa ([2]; 1H NMR, read-out: pKa (NqH+)): 2.32 ± 0.03 | pKa ([2]; 1H NMR, read-out: pKa (OH)): 7.75 ± 0.02 | pKa ([2]; UV-vis, read-out: pKa (NhPro/ProH+)): > 11 | pKa ([2]; UV-vis, read-out: pKa (NqH+)): 2.13 ± 0.03 | pKa ([2]; UV-vis, read-out: pKa (OH)): 7.77 ± 0.04 | pKa ([2]; pH-potentiometry, read-out: pKa (NhPro/ProH+)): > 11 | pKa ([2]; pH-potentiometry, read-out: pKa (NqH+)): < 2 | pKa ([2]; pH-potentiometry, read-out: pKa (OH)): 7.71 ± 0.06 | fraction of the negatively charged species (O−, COO−, NhPro/ProH+) ([2]; at pH 7.4): 30% | logD [3]: -0.02 ± 0.01

O=C(O)[C@@H]1CCCN1Cc1cc(Cl)c2cccnc2c1O [HQCl-L-Pro, (S)-5-chloro-7-((proline-1-yl)methyl)8-hydroxyquinoline]
IC50 [1]: 4.57 ± 0.21 µM | IC50 [4]: 23.4 µM | IC50 [5]: 8.5 µM | pKa (NH+Pro) [6]: > 11.5 | pKa (NqH+) [6]: 2.36 | pKa (OH) [6]: 7.76

c1ccc2c(c1)Nc1c(ccc3ccccc13)S2 [M627, 12H-Benzo[α]phenothiazine, reference compound]
cell death, gated events (Colo-205 cells; 10 μM): 15.2% | early apoptosis, gated events (Colo-205 cells; 10 μM): 5.27% | late apoptosis and necrosis, gated events (Colo-205 cells; 10 μM): 16.8% | cell death (Q1), gated events (Colo-205 cells; 20 μM): 20.9% | early apoptosis (Q3), gated events (Colo-205 cells; 20 μM): 21.7% | late apoptosis and necrosis (Q2), gated events (Colo-205 cells; 20 μM): 36.2%

Cc1c(C)c(C)[c-](C)c1C.O=C(O)[C@@H]1CCC[NH+]1Cc1cc(Cl)c2cccnc2c1[O-].[Cl-].[Cl-].[Rh+3] [RhCp*–HQCl-L-Pro, [RhCp*(HQCl-L-Pro)Cl]Cl]
stability constant logK of the RhCp* complex [7]: 13.41 | FHA logKFHA′ (Ac-Phe–His–Ala-NH2 (FHA)): 4.7 | reaction time with the tripeptides (Ac-Phe–His–Ala-NH2 (FHA)): few seconds | logK′ (AHA) (Ac-Ala–His–Ala-NH2 (AHA)): 4.2 | Trp-214 Quenching logKQ′, Site I [8]: 5.5 | DG Displacement logKDG′, Site II [9]: 5.6

Cc1ccc(C(C)C)cc1.O=C(O)[C@@H]1CCC[NH+]1Cc1cc(Cl)c2cccnc2c1[O-].[Cl-].[Cl-].[Ru+2] [RuCym–HQCl-L-Pro, [RuCym(HQCl-L-Pro)Cl]Cl]
FHA logKFHA′ (Ac-Phe–His–Ala-NH2 (FHA)): 5.1 | reaction time with the tripeptides (Ac-Phe–His–Ala-NH2 (FHA)): 3 h | logK′ (AHA) (Ac-Ala–His–Ala-NH2 (AHA)): 4.4 | Trp-214 Quenching logKQ′, Site I [8]: 5.7 | DG Displacement logKDG′, Site II [9]: 6.1

N.N.[Cl][Pt][Cl] [cisplatin, reference compound]
cell death, gated events (Colo-205 cells; 15 μM): 3.18% | early apoptosis, gated events (Colo-205 cells; 15 μM): 1.06% | late apoptosis and necrosis, gated events (Colo-205 cells; 15 μM): 4.70%

COc1cccc2c1C(=O)c1c(O)c3c(c(O)c1C2=O)C[C@@](O)(C(=O)CO)C[C@@H]3O[C@H]1C[C@H](N)[C@H](O)[C@H](C)O1 [doxorubicin, reference compound]
IC50 [10]: 0.05 ± 0.01 µM | IC50 [11]: 0.19 ± 0.02 µM | IC50 [1]: 0.82 ± 0.16 µM
